Measured values: BigSolDB 2.1

Nc1ccc(Cc2ccc(N)cc2)cc1
solubility (mole fraction)
Details	293.15 K	298.15 K	303.15 K	308.15 K	313.15 K	318.15 K	323.15 K	328.15 K	333.15 K
in benzene	0.0207	0.0299	0.039	0.0499	0.066	0.0865	0.114	–	–
in chloroform	0.123	0.142	0.165	0.197	0.23	0.269	0.306	–	–
in ethanol	0.0335	0.0461	0.0637	0.0842	0.11	0.15	0.198	0.267	–
in isopropanol	0.011	0.0136	0.0178	0.0236	0.0312	0.0411	0.0536	0.0696	0.0898
in methanol	0.127	0.157	0.187	0.219	0.259	0.3	0.347	0.403	–
in n-butanol	0.0187	0.0231	0.0296	0.0371	0.0476	0.0582	0.0713	0.0885	0.108
in toluene	0.0156	0.0195	0.0244	0.03	0.038	0.0487	0.0599	0.075	0.0932
